Tests used:
KB-A1 [1] = assay: Flow cytometry: intracellular accumulation of ADR, line KB-A1; format: cell-based, Human; details: ADR 50 μM, 5 hours
Description: Also measured was the effect of the compounds on the intracellular concentration of adriamycin. […] By measuring that fluorescence, it is thus possible to obtain a relative measurement of the intracellular concentration of ADR. […] The cells (5×10^5 per ml) were exposed simultaneously to ADR at a fixed concentration (50 μM) and to the tested compounds at various concentrations. After 5 hours' incubation, the intracellular accumulation of ADR was evaluated by FCM. […] The results were presented in the form of linear histograms of the intracellular ADR fluorescence. Expression of the results: for each of the histograms the mean fluorescence per channel (MEAN) was determined by the computer of the apparatus. For all experiments: a negative control (cells without ADR) fixed the autofluorescence threshold. a positive control (cells with ADR) determined the MEAN value=MN1. the "test" tubes (cells with ADR and with compound) were used to determine, for each of the compounds and at each of the concentrations, the MEAN values=MN2. The results are expressed in the form of variations from the mean fluorescence obtained for each of the "test" tubes (MN2) in relation to the mean fluorescence obtained with the positive control (MN1): VAR-MEAN=MN2-MN1. The measured parameter is thus the increase in ADR fluorescence in the presence of the tested compounds.

P 388 = assay: In vivo increase in antitumour activity of vincristine, sensitive line P388; design: species or system murine leukaemia in female B6D2F1 mice; details: compound 150 mg/kg p.o.
Description: (§1) The sensitive parent line P 388 (murine leukaemia) and the sub-line resistant to vincristine, P 388/VCR, were supplied by NCI (Frederick, USA). The tumour cells (10^6 cells) were inoculated on day 0 into the indraperitoneal cavity of female B6D2F1 mice (Iffa Credo, France) weighing from 18 to 20 g (groups of 8 to 10 animals).
Every day for 4 days, starting from day 1, the animals received: […]
(§2) 30 to 60 minutes later, an administration by the i.p. route of 0.25 mg/kg of vincristine (used as a reference antitumour agent).
(§3) The antitumour activity is expressed as follows: [formula]
(§4) The values are mean values obtained in independent experiments (# sem when n is greater than or equal to 3).
Using the sensitive line (P388) the tested compounds of the invention increase considerably the sensitivity of the cells to vincristine.

DC-3F/AD = assay: Cytotoxicity: reversal of resistance to actinomycin D (reversion factor), line DC-3F/AD; format: cell-based, Chinese hamster
Description: (§5) The parameter measured is the cytotoxicity of the antitumour drug, quantified in the absence and in the presence of the reversing compound. Two resistant cell lines were used: 1 Chinese hamster lung line, DC-3F/AD, the resistance of which was induced by actinomycin D. […] The compounds tested for their capacity to reverse the resistance are added at the same time as the cytotoxic agent. The cells are then incubated for 4 days.

KB-A1 [2] = assay: Cytotoxicity: reversal of resistance to adriamycin (reversion factor), line KB-A1; format: cell-based, Human
Description: as §5, with “compound.” for “compound. Two resistant cell lines were used: 1 Chinese hamster lung line, DC-3F/AD, the resistance of which was induced by actinomycin D.”

P 388/VCR = assay: In vivo increase in antitumour activity of vincristine, resistant line P 388/VCR; design: species or system murine leukaemia in female B6D2F1 mice
Source text: This study was completed by an in vivo study, using a murine leukaemia resistant to vincristine (P 388/VCR) and using the compounds of the present invention in association with vincristine.
as §1
Every day for 4 days, starting from day 1, the animals received:
an administration of 25 to 150 mg/kg by i.p., p.o. or i.v. route of the compound of the present invention to be tested, as mentioned in the table 4a; then
as §2, §3, §4

calcium channel = target: T1, calcium channel (Sus scrofa, UniProt A0A8W4FNC0); assay: Affinity for the calcium channel labelled with [^3 ] PN 200110, aorta smooth muscle microsome preparations; format: binding; details: pig aorta smooth muscle microsomes; means of three independent experiments
T1 construct: pig aorta smooth muscle microsome preparations; from tissue; host or cells: pig aorta smooth muscle microsomes
T1 sequence (A0A8W4FNC0 1-2067): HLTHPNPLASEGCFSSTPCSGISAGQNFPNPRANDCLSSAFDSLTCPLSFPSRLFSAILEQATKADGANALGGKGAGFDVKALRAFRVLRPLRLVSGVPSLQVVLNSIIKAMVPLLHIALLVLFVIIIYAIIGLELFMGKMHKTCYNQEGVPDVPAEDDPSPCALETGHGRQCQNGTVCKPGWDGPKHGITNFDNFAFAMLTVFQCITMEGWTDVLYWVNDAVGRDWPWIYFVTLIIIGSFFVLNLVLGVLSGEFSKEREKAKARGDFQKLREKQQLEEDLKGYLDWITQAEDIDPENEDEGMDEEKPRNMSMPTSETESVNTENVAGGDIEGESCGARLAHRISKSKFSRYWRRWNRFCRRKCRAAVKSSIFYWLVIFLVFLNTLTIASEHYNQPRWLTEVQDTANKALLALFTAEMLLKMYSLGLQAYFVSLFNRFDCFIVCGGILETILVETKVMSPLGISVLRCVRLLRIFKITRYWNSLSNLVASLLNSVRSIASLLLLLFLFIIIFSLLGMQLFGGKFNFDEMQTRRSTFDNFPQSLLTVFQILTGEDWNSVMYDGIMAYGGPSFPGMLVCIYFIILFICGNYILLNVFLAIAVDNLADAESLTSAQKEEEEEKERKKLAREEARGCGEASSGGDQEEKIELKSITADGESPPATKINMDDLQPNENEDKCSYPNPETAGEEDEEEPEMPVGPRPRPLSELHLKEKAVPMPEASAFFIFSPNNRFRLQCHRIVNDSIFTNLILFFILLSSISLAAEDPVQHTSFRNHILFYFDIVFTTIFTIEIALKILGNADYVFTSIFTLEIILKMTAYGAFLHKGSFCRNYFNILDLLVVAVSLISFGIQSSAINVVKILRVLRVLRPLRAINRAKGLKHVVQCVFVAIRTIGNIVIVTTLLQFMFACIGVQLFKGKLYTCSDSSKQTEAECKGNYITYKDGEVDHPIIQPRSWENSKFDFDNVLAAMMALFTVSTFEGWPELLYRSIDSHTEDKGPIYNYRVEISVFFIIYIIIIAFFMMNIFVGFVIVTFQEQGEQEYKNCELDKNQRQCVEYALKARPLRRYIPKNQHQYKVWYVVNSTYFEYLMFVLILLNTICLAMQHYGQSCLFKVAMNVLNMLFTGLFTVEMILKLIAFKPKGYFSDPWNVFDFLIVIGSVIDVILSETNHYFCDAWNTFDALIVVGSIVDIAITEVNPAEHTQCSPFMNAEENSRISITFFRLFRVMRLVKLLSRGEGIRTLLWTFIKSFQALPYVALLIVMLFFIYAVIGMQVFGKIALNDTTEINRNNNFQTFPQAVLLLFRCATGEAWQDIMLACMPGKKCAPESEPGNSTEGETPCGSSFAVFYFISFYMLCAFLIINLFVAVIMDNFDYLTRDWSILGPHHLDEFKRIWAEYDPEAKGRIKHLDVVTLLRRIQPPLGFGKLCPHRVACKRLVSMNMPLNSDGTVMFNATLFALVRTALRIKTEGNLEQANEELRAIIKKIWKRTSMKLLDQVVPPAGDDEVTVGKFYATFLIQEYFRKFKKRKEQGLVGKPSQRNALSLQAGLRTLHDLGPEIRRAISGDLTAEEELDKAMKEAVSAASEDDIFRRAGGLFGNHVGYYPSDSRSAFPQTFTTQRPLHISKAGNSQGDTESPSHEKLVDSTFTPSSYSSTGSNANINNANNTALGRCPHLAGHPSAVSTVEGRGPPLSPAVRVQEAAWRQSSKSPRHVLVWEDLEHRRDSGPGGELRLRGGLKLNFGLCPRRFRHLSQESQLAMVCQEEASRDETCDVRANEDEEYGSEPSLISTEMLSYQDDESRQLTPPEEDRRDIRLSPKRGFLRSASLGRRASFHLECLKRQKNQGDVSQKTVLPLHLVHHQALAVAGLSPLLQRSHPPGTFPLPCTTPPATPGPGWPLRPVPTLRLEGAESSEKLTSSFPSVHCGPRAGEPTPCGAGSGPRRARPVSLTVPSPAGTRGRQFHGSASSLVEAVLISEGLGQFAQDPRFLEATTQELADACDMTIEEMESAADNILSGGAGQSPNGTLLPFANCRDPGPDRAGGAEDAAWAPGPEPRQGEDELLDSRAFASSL
Source text: The results are expressed as IC50 (M) and represent means of three independent experiments.

Plasmodium falciparum = details: literature (Krogstad; Martin; Deloron); cited from earlier work
[3] = with VCR […] i.p., compound 50 mg/kg i.p.
[4] = with VCR […] i.p., compound 150 mg/kg p.o.

SMILES	increase in the ADR fluorescence (VAR-MEAN) (KB-A1 [1]; compound 1 μM)	increase in the ADR fluorescence (VAR-MEAN) (KB-A1 [1]; compound 5 μM)	increase in the ADR fluorescence (VAR-MEAN) (KB-A1 [1]; compound […])	T/C (P 388; VCR 0) [%]	Survivors on day 60 (P 388; with VCR […] i.p.)	T/C (P 388; with VCR […] i.p.) [%]	reversion factor (RF) (DC-3F/AD; compound 1 μM)	reversion factor (RF) (DC-3F/AD; compound 5 μM)	reversion factor (RF) (KB-A1 [2]; compound 1 μM)	reversion factor (RF) (KB-A1 [2]; compound 5 μM)	T/C (P 388/VCR; VCR 0, compound 50 mg/kg i.p.) [%]	T/C (P 388/VCR; VCR 0, compound 150 mg/kg p.o.) [%]	T/C (P 388/VCR; [3]) [%]	T/C (P 388/VCR; [4]) [%]	IC50 (calcium channel) [µM]	Survivors on day 60 (P 388; VCR 0)	sensitivity of a chloroquine-resistant line to chloroquine (Plasmodium falciparum)
CCOC(=O)C1=C(COCCOCCNCc2ccsc2)NC(C)=C(C(=O)OC)C1c1cccc(Cl)c1Cl (stereo not drawn) [Example 14, d-2-{[2-(2-(N-thien-3-ylmethylamino)ethoxy)ethoxy]methyl}-4-(2,3-dichlorophenyl)-3-ethoxycarbonyl-5-methoxycarbonyl-6-methyl-1,4-dihydropyridine]	2.4	20.5	8.2	95	4/8	> 587	8.2	4,463.2	22.7	169.4	99	103	164	200	1	–	–
CCOC(=O)C1=C(COCCOCCNCc2cccnc2)NC(C)=C(C(=O)OC)C1c1cccc(Cl)c1Cl (stereo not drawn) [Example 17, d-2-{[2-(2-(N-pyrid-3-ylmethylamino)ethoxy)ethoxy]methyl}-4-(2,3-dichlorophenyl)-3-ethoxycarbonyl-5-methoxycarbonyl-6-methyl-1,4-dihydropyridine]	–	–	–	–	–	–	3.7	8,600.0	10.5	120.7	–	–	–	–	1.4	–	–
CCOC(=O)C1=C(COCCOCCNCc2nccc3ccccc23)NC(C)=C(C(=O)OC)C1c1cccc(Cl)c1Cl (stereo not drawn) [Example 19, d-2-{[2-(2-(N-isoquinol-1-ylmethylamino)ethoxy)ethoxy]methyl}-4-(2,3-dichlorophenyl)-3-ethoxycarbonyl-5-methoxycarbonyl-6-methyl-1,4-dihydropyridine]	9.4	34.7	15.7	–	–	–	1.5	1,701.7	3.6	140.5	–	–	–	–	3.2	–	–
CCOC(=O)C1=C(COCCOCCNCc2ccccn2)NC(C)=C(C(=O)OC)C1c1cccc(Cl)c1Cl (stereo not drawn) [Example 16, d-2-{[2-(2-(N-pyrid-2-ylmethylamino)ethoxy)ethoxy]methyl}-4-(2,3-dichlorophenyl)-3-ethoxycarbonyl-5-methoxycarbonyl-6-methyl-1,4-dihydropyridine]	–	–	–	–	–	–	3.4	8,248.4	13.9	122.4	–	–	–	–	1.6	–	–
CCOC(=O)C1=C(COCCOCCNCc2ccc([N+](=O)[O-])cc2)NC(C)=C(C(=O)OC)C1c1cccc(Cl)c1Cl (stereo not drawn) [Example 1, d-2-{[2-(2-(N-p-nitrobenzylamino)ethoxy)ethoxy]methyl}-4-(2,3-dichlorophenyl)-3-ethoxycarbonyl-5-methoxycarbonyl-6-methyl-1,4-dihydropyridine]	5.5	45.7	26.1	99	4/8	> 532	21.0	2,613.2	32.1	640.5	107	99	171	185	1.6	0/8	–
CCOC(=O)C1=C(COCCOCCNCc2ccnc3ccccc23)NC(C)=C(C(=O)OC)C1c1cccc(Cl)c1Cl (stereo not drawn) [Example 18, d-2-{[2-(2-(N-quinol-4-ylmethylamino)ethoxy)ethoxy]methyl}-4-(2,3-dichlorophenyl)-3-ethoxycarbonyl-5-methoxycarbonyl-6-methyl-1,4-dihydropyridine]	–	–	–	–	–	–	3.3	5,018.4	4.3	348.2	–	–	–	–	1.1	–	–
CCOC(=O)C1=C(COCCN)NC(C)=C(C(=O)OC)C1c1ccccc1Cl (centres unmarked) [AMLODIPINE, amlodipine, reference compound]	0.0	4.7	2.1	–	–	–	1.0	2.6	1.5	5.9	–	–	–	–	–	–	restores the sensitivity of a line resistant to chloroquine
COc1ccc(CCN(C)CCCC(C#N)(c2ccc(OC)c(OC)c2)C(C)C)cc1OC (centres unmarked) [verapamil, reference compound]	3.7	12.2	8.6	–	–	–	1.0	3.1	4.6	26.0	–	–	–	–	–	–	restores the sensitivity of a line resistant to chloroquine
CCOC(=O)C1=C(COCCOCCNCc2cnc3ccccc3c2)NC(C)=C(C(=O)OC)C1c1cccc(Cl)c1Cl (stereo not drawn) [Example 23, d-2-{[2-(2-[N-(quinol-3-yl)methylamino]ethoxy)ethoxy]methyl}-4-(2,3-dichlorophenyl)-3-ethoxycarbonyl-5-methoxycarbonyl-6-methyl-1,4-dihydropyridine]	–	–	–	–	–	–	10.2	2,304.0	19.6	1,035.8	–	–	–	–	2	–	–
CCOC(=O)C1=C(COCCOCCNCc2ccc3ccccc3c2)NC(C)=C(C(=O)OC)C1c1cccc(Cl)c1Cl (stereo not drawn) [Example 12, d-2-{[2-(2-(N-naphth-2-ylmethylamino)ethoxy)ethoxy]methyl}-4-(2,3-dichlorophenyl)-3-ethoxycarbonyl-5-methoxycarbonyl-6-methyl-1,4-dihydropyridine]	–	–	–	–	–	–	1.1	1,320.1	1.2	125.4	–	–	–	–	1.3	–	–
